Results: patent US9833497B2, “Human originated EGF domain proteins and use of the same” (CHENGDU SOURCEBIO LIMITED-LIABILITY COMPANY, priority 2013, dated 2017)

Assays:
Type in all cases: cell-based
[1] = tested on: Pseudomonas aeruginosa; test: MIC against Gram-negative bacteria: Pseudomonas aeruginosa; conditions: 5×10^5 CFU/mL
Procedure, shortened: (§1)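 The recombinant human-originated EGF domain proteins were serially diluted two-fold against bacteria at 5×10^5 CFU/mL in LB medium. After shaken incubation at 37° C, the lowest concentration with no bacterial growth was recorded as the MIC.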

[2] = tested on: E. coli DH5α; test: Antibacterial activity: MIC and growth curve against E. coli DH5α in 96-well plate; conditions: minimal inhibitory concentration against E. coli DH5α; 96-well plate, 5×10^5 CFU/mL, 37° C., judged after 8 h
Procedure, shortened: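 Log-phase bacteria (OD600 ~0.5) resuspended in LB at 5×10^5 CFU/mL, exposed to recombinant protein at 50, 25, 12.5 μg/mL final in triplicate, 37 °C shaking at 175 rpm. OD600 read every 30 min; MIC is lowest concentration showing no growth.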

[3] = tested on: Enterobacter cloacae; test: MIC against Gram-negative bacteria: Enterobacter cloacae; conditions: 5×10^5 CFU/mL
Procedure, shortened: as §1

[4] = tested on: Moraxella catarrhalis; test: MIC against Gram-negative bacteria: Moraxella catarrhalis; conditions: 5×10^5 CFU/mL
Procedure, shortened: as §1

[5] = tested on: Citrobacter diversus; test: MIC against Gram-negative bacteria: Citrobacter diversus; conditions: 5×10^5 CFU/mL
Procedure, shortened: as §1

[6] = tested on: E. coli BL21; test: MIC against Gram-negative bacteria: E. coli BL21; conditions: 5×10^5 CFU/mL
Procedure, shortened: as §1

[7] = tested on: Klebsiella pneumonia; test: MIC against Gram-negative bacteria: Klebsiella pneumonia; conditions: 5×10^5 CFU/mL
Procedure, shortened: as §1

[8] = tested on: Proteus vulgaris; test: MIC against Gram-negative bacteria: Proteus vulgaris; conditions: 5×10^5 CFU/mL
Procedure, shortened: as §1

[9] = tested on: Proteus mirabilis; test: MIC against Gram-negative bacteria: Proteus mirabilis; conditions: 5×10^5 CFU/mL
Procedure, shortened: as §1

[10] = tested on: Serratia marcescens; test: MIC against Gram-negative bacteria: Serratia marcescens; conditions: 5×10^5 CFU/mL
Procedure, shortened: as §1

[11] = tested on: Aeromonas hydrophila; test: MIC against Gram-negative bacteria: Aeromonas hydrophila; conditions: 5×10^5 CFU/mL
Procedure, shortened: as §1

[12] = Pseudomonas aeruginosa, 96-well plate, 37° C., 10 h
[13] = Enterobacter cloacae, 96-well plate, 37° C., 10 h
[14] = Moraxella catarrhalis, 96-well plate, 37° C., 10 h
[15] = Citrobacter diversus, 96-well plate, 37° C., 10 h
[16] = Klebsiella pneumonia, 96-well plate, 37° C., 10 h
[17] = Proteus vulgaris, 96-well plate, 37° C., 10 h
[18] = Proteus mirabilis, 96-well plate, 37° C., 10 h
[19] = Serratia marcescens, 96-well plate, 37° C., 10 h
[20] = Aeromonas hydrophila, 96-well plate, 37° C., 10 h
[21] = 10 h cultivation at 37° C., two-fold serial dilution

PRT22 (WCEDNGGCEQICTSRVDGPLCSCVTGTLQEDGKSCR; listed as Homo sapiens)
MIC (μg/mL) P. aeruginosa [1, 12]: 25 µg/mL
MIC [2]: 50 µg/mL
MIC (μg/mL) E. cloacae [3, 13]: 12.5 µg/mL
MIC (μg/mL) M. catarrhalis [4, 14]: 25 µg/mL
MIC (μg/mL) C. diversus [5, 15]: 12.5 µg/mL
MIC (μg/mL) E. coli BL21 ([6]; 96-well plate, 37° C., 10 h): 50 µg/mL
MIC (μg/mL) K. pneumonia [7, 16]: 12.5 µg/mL
MIC (μg/mL) P. vulgaris [8, 17]: 12.5 µg/mL
MIC (μg/mL) P. mirabilis [9, 18]: 12.5 µg/mL
MIC (μg/mL) S. marcescens [10, 19]: 25 µg/mL
MIC (μg/mL) A. hydrophila [11, 20]: 25 µg/mL

PRT1303 (HGLCRSVEKDSVVCECRPGWTGPLCD; listed as Homo sapiens)
MIC against P. aeruginosa [1, 12]: 12.5 µg/mL
MIC [2]: 12.5 µg/mL
MIC against E. cloacae [3, 13]: 12.5 µg/mL
MIC against M. catarrhalis [4, 14]: 12.5 µg/mL
MIC against C. diversus [5, 15]: 12.5 µg/mL
MIC against E. coli BL21 ([6]; 96-well plate, 37° C., 10 h): 50 µg/mL
MIC against K. pneumonia [7, 16]: 50 µg/mL
MIC against P. vulgaris [8, 17]: 12.5 µg/mL
MIC against P. mirabilis [9, 18]: 25 µg/mL
MIC against S. marcescens [10, 19]: 25 µg/mL
MIC against A. hydrophila [11, 20]: 50 µg/mL

PRT214 (DDNECGNLTQSCGENANCTNTEGSYYCMCVPGFRSSSNQDRFITNDGTVCI; listed as Homo sapiens)
MIC (μg/mL) P. aeruginosa ([1]; P. aeruginosa, 10 h cultivation at 37° C.): 12.5 µg/mL
MIC [2]: 12.5 µg/mL
MIC (μg/mL) E. cloacae ([3]; E. cloacae, 10 h cultivation at 37° C.): 12.5 µg/mL
MIC (μg/mL) M. catarrhalis ([4]; M. catarrhalis, 10 h cultivation at 37° C.): 25 µg/mL
MIC (μg/mL) C. diversus ([5]; C. diversus, 10 h cultivation at 37° C.): 12.5 µg/mL
MIC (μg/mL) E. coli BL21 ([6]; 10 h cultivation at 37° C.): 25 µg/mL
MIC (μg/mL) K. pneumonia ([7]; K. pneumonia, 10 h cultivation at 37° C.): 25 µg/mL
MIC (μg/mL) P. vulgaris ([8]; P. vulgaris, 10 h cultivation at 37° C.): 25 µg/mL
MIC (μg/mL) P. mirabilis ([9]; P. mirabilis, 10 h cultivation at 37° C.): 12.5 µg/mL
MIC (μg/mL) S. marcescens ([10]; S. marcescens, 10 h cultivation at 37° C.): 12.5 µg/mL
MIC (μg/mL) A. hydrophila ([11]; A. hydrophila, 10 h cultivation at 37° C.): 25 µg/mL

PRT1315 (FGPDCQSVCSCVHGVCNHGPRGDGSCLCFAGYTGPHCD; listed as Homo sapiens)
MIC against P. aeruginosa [1, 12]: 12.5 µg/mL
MIC [2]: 25 µg/mL
MIC against E. cloacae [3, 13]: 25 µg/mL
MIC against M. catarrhalis [4, 14]: 50 µg/mL
MIC against C. diversus [5, 15]: 12.5 µg/mL
MIC against E. coli BL21 ([6]; 96-well plate, 37° C., 10 h): 12.5 µg/mL
MIC against K. pneumonia [7, 16]: 100 µg/mL
MIC against P. vulgaris [8, 17]: 50 µg/mL
MIC against P. mirabilis [9, 18]: 12.5 µg/mL
MIC against S. marcescens [10, 19]: 12.5 µg/mL
MIC against A. hydrophila [11, 20]: 12.5 µg/mL

PRT619 (CNCQGGGACDPDTGDCYSGDENPDIECADCPIGFYNDPHDPRSCKP; listed as Homo sapiens)
MIC P. aeruginosa ([1]; 96-well plate, 37° C., 10 h): 50 µg/mL
MIC [2]: 12.5 µg/mL
MIC E. cloacae ([3]; 96-well plate, 37° C., 10 h): 12.5 µg/mL
MIC M. catarrhalis ([4]; 96-well plate, 37° C., 10 h): 25 µg/mL
MIC C. diversus ([5]; 96-well plate, 37° C., 10 h): 50 µg/mL
MIC E. coli BL21 ([6]; 96-well plate, 37° C., 10 h): 25 µg/mL
MIC K. pneumonia ([7]; 96-well plate, 37° C., 10 h): 25 µg/mL
MIC P. vulgaris ([8]; 96-well plate, 37° C., 10 h): 25 µg/mL
MIC P. mirabilis ([9]; 96-well plate, 37° C., 10 h): 12.5 µg/mL
MIC S. marcescens ([10]; 96-well plate, 37° C., 10 h): 50 µg/mL
MIC A. hydrophila ([11]; 96-well plate, 37° C., 10 h): 25 µg/mL

PRT1076 (SCLTCVGHCSNGGSCTMNSKMMPECQCPPHMTGPRCE; listed as Homo sapiens)
MIC P. aeruginosa [1, 21]: 12.5 µg/mL
MIC [2]: 12.5 µg/mL
MIC E. cloacae [3, 21]: 12.5 µg/mL
MIC M. catarrhalis [4, 21]: 12.5 µg/mL
MIC C. diversus [5, 21]: 12.5 µg/mL
MIC E. coli BL21 [6, 21]: 25 µg/mL
MIC K. pneumonia [7, 21]: 25 µg/mL
MIC P. vulgaris [8, 21]: 12.5 µg/mL
MIC P. mirabilis [9, 21]: 25 µg/mL
MIC S. marcescens [10, 21]: 25 µg/mL
MIC A. hydrophila [11, 21]: 12.5 µg/mL
